# Test results published in US9216968B2, “Heterocyclic derivative and pharmaceutical drug” (NIPPON SHINYAKU CO., LTD., priority 2011, dated 2015).
# Structures can show the parent of a compound that is named as a salt.
# Columns and labels:
# human mPGES-1 = human mPGES-1 (Homo sapiens (Human), UniProt O14684); experiment: mPGES-1 inhibiting activity (microsome fractions, PGE2 by HTRF); type: biochemical; conditions: microsomes from CHO-K1 cells transfected with human mPGES-1; PGH2 1 μM, 4° C., 60 seconds; read-out: mPGES-1 Inhibition IC50
# Outline: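 PGE2 formation read by HTRF after 60 s at 4 °C with 1 μM PGH2 substrate, following 20 min compound preincubation (1% DMSO) with human mPGES-1 microsomes from transfected CHO-K1 cells. Buffer: potassium phosphate, reduced glutathione, pH 7.4; IC50 from activity relative to enzyme-free blank.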
# A549 cells = experiment: Inhibition of PGE2 production in A549 cell (IL-1β stimulated); type: cell-based, human; conditions: Homo sapiens, A549, 24 h, IL-1β 5 ng/well, PGE2 in culture medium
# Outline: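 A549 cells preincubated 60 min with compound in RPMI/3% FBS (final DMSO 0.10), then stimulated with IL-1β (5 ng/well) for 24 h at 37 °C. PGE2 measured by HTRF and PGF2α by EIA in medium; IC50 from inhibition relative to stimulated minus unstimulated production.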
# Chain of human mPGES-1 (O14684 whole entry): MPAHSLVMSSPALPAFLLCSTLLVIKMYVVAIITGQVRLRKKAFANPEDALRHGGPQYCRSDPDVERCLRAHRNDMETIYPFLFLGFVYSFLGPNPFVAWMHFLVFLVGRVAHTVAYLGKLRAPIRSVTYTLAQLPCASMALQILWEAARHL
Structure (SMILES),IC50 (human mPGES-1),IC50 (A549 cells)
"CC(C)(C)c1nc2c(C(=O)NCc3ncccc3C(F)(F)F)cc(NC(=O)c3ccccc3C(F)(F)F)cc2[nH]1 [Example 77, 2-tert-Butyl-6-({[2-(trifluoromethyl)phenyl]carbonyl}amino)-N-{[3-(trifluoromethyl)pyridin-2-yl]methyl}-1H-benzimidazole-4-carboxamide dihydrochloride]",1.7 nM,32.9 nM
"CCOCCc1nc2c(C(=O)Nc3cccc(Cl)c3C)cc(NC(=O)c3ccccc3C(F)(F)F)cc2[nH]1 [Example 78, N-(3-Chloro-2-methylphenyl)-2-(2-ethoxyethyl)-6-({[2-(trifluoromethyl)phenyl]carbonyl}amino)-1H-benzimidazole-4-carboxamide hydrochloride]",96.8 nM,177 nM
"CCOCc1nc2c(C(=O)Nc3cccc(Cl)c3C)cc(NC(=O)c3ccccc3C(F)(F)F)cc2[nH]1 [Example 79, N-(3-Chloro-2-methylphenyl)-2-(ethoxymethyl)-6-({[2-(trifluoromethyl)phenyl]carbonyl}amino)-1H-benzimidazole-4-carboxamide hydrochloride]",15 nM,285 nM
"CCOCc1nc2c(C(=O)NCc3ncccc3C(F)(F)F)cc(NC(=O)c3ccccc3C(F)(F)F)cc2[nH]1 [Example 80, 2-(Ethoxymethyl)-6-({[2-(trifluoromethyl)phenyl]carbonyl}amino)-N-{[3-(trifluoromethyl)pyridin-2-yl]methyl}-1H-benzimidazole-4-carboxamide dihydrochloride]",29.4 nM,1250 nM
"COCCc1nc2c(C(=O)Nc3cccc(Cl)c3C)cc(NC(=O)c3ccccc3C(F)(F)F)cc2[nH]1 [Example 81, N-(3-Chloro-2-methylphenyl)-2-(2-methoxyethyl)-6-({[2-(trifluoromethyl)phenyl]carbonyl}amino)-1H-benzimidazole-4-carboxamide hydrochloride]",5 nM,404 nM
"Cc1c(Cl)cccc1NC(=O)c1cc(NC(=O)c2ccccc2C(F)(F)F)cc2[nH]c(CC(C)(C)C)nc12 [Example 82, N-(3-Chloro-2-methylphenyl)-2-(2,2-dimethylpropyl)-6-({[2-(trifluoromethyl)phenyl]carbonyl}amino)-1H-benzimidazole-4-carboxamide hydrochloride]",0.4 nM,6.3 nM
"Cc1c(Cl)cccc1NC(=O)c1cc(NC(=O)c2ccccc2C(F)(F)F)cc2[nH]c(C3CC3)nc12 [Example 83, N-(3-Chloro-2-methylphenyl)-2-cyclopropyl-6-({[2-(trifluoromethyl)phenyl]carbonyl}amino)-1H-benzimidazole-4-carboxamide hydrochloride]",9.8 nM,16.5 nM
"CCCC(C)(C)c1nc2c(C(=O)Nc3cccc(Cl)c3C)cc(NC(=O)c3ccccc3C(F)(F)F)cc2[nH]1 [Example 84, N-(3-Chloro-2-methylphenyl)-2-(2-methylpentan-2-yl)-6-({[2-(trifluoromethyl)phenyl]carbonyl}amino)-1H-benzimidazole-4-carboxamide hydrochloride]",0.8 nM,6.5 nM
"Cc1c(Cl)cccc1NC(=O)c1cc(NC(=O)c2ccccc2C(F)(F)F)cc2[nH]c(C3(C)CC3)nc12 [Example 85, N-(3-chloro-2-methylphenyl)-2-(1-methylcyclopropyl)-6-({[2-(trifluoromethyl)phenyl]carbonyl}amino)-1H-benzimidazole-4-carboxamide]",0.5 nM,3.7 nM
"Cc1ccc(NC(=O)c2cc(NC(=O)c3ccccc3C(F)(F)F)cc3[nH]c(C(C)(C)C)nc23)cc1Cl [Example 86, 2-tert-Butyl-N-(3-chloro-4-methylphenyl)-6-({[2-(trifluoromethyl)phenyl]carbonyl}amino)-1H-benzimidazole-4-carboxamide hydrochloride]",1 nM,5.1 nM
"Cc1c(Cl)cccc1NC(=O)c1cc(NC(=O)c2cc(Cl)ccc2Cl)cc2[nH]c(C(C)(C)C)nc12 [Example 87, 2-tert-Butyl-N-(3-chloro-2-methylphenyl)-6-{[(2,5-dichlorophenyl)carbonyl]amino}-1H-benzimidazole-4-carboxamide hydrochloride]",5.7 nM,6.9 nM
"Cc1ccc(NC(=O)c2cc(NC(=O)c3cc(Cl)ccc3Cl)cc3[nH]c(C(C)(C)C)nc23)cc1Cl [Example 88, 2-tert-Butyl-N-(3-chloro-4-methylphenyl)-6-{[(2,5-dichlorophenyl)carbonyl]amino}-1H-benzimidazole-4-carboxamide hydrochloride]",15.1 nM,9.2 nM

# Continued, values first:
IC50 (human mPGES-1),IC50 (A549 cells),Structure (SMILES)
1.2 nM,2.1 nM,"Cc1c(Cl)cccc1NC(=O)c1cc(NC(=O)c2ccccc2C(F)(F)F)cc2[nH]c(C3(C(F)(F)F)CC3)nc12 [Example 89, N-(3-Chloro-2-methylphenyl)-2-[1-(trifluoromethyl)cyclopropyl]-6-({[2-(trifluoromethyl)phenyl]carbonyl}amino)-1H-benzimidazole-4-carboxamide]"
118 nM,348 nM,"COCc1nc2c(C(=O)Nc3cccc(Cl)c3C)cc(NC(=O)c3ccccc3C(F)(F)F)cc2n1C [Example 90, N-(3-Chloro-2-methylphenyl)-2-(methoxymethyl)-1-methyl-6-({[2-(trifluoromethyl)phenyl]carbonyl}amino)-1H-benzimidazole-4-carboxamide]"
6.7 nM,32.2 nM,"COCc1nc2c(C(=O)Nc3cccc(Cl)c3C)cc(NC(=O)c3c(F)cccc3Cl)cc2[nH]1 [Example 92, 6-{[(2-Chloro-6-fluorophenyl)carbonyl]amino}-N-(3-chloro-2-methylphenyl)-2-(methoxymethyl)-1H-benzimidazole-4-carboxamide hydrochloride]"
4.2 nM,154 nM,"COCc1nc2c(C(=O)Nc3cccc(Cl)c3C)cc(NC(=O)c3ccc(F)cc3Cl)cc2[nH]1 [Example 93, 6-{[(2-Chloro-4-fluorophenyl)carbonyl]amino}-N-(3-chloro-2-methylphenyl)-2-methoxymethyl-1H-benzimidazole-4-carboxamide hydrochloride]"
9.1 nM,182 nM,"COCc1nc2c(C(=O)Nc3cccc(Cl)c3C)cc(NC(=O)c3cc(F)ccc3Cl)cc2[nH]1 [Example 94, 6-{[(2-Chloro-5-fluorophenyl)carbonyl]amino}-N-(3-chloro-2-methylphenyl)-2-(methoxymethyl)-1H-benzimidazole-4-carboxamide hydrochloride]"
5.1 nM,105 nM,"COCc1nc2c(C(=O)Nc3cccc(Cl)c3C)cc(NC(=O)c3ccccc3Cl)cc2[nH]1 [Example 95, N-(3-Chloro-2-methylphenyl)-6-{[(2-chlorophenyl)carbonyl]amino}-2-(methoxymethyl)-1H-benzimidazole-4-carboxamide hydrochloride]"
34 nM,126 nM,"COCc1nc2c(C(=O)Nc3cccc(Cl)c3C)cc(NC(=O)c3cccnc3Cl)cc2[nH]1 [Example 96, N-(3-Chloro-2-methylphenyl)-6-{[(2-chloropyridin-3-yl)carbonyl]amino}-2-(methoxymethyl)-1H-benzimidazole-4-carboxamide hydrochloride]"
6.1 nM,43.1 nM,"COCc1nc2c(C(=O)Nc3cccc(Cl)c3C)cc(NC(=O)c3ccccc3Br)cc2[nH]1 [Example 97, 6-{[(2-Bromophenyl)carbonyl]amino}-N-(3-chloro-2-methylphenyl)-2-(methoxymethyl)-1H-benzimidazole-4-carboxamide hydrochloride]"
6 nM,11.9 nM,"COCc1nc2c(C(=O)Nc3cccc(Cl)c3C)cc(NC(=O)c3c(Cl)cccc3Cl)cc2[nH]1 [Example 98, N-(3-Chloro-2-methylphenyl)-6-{[(2,6-dichlorophenyl)carbonyl]amino}-2-(methoxymethyl)-1H-benzimidazole-4-carboxamide hydrochloride]"
3.7 nM,18.9 nM,"COCc1nc2c(C(=O)Nc3cccc(Cl)c3C)cc(NC(=O)c3cc(Cl)ccc3Cl)cc2[nH]1 [Example 99, N-(3-Chloro-2-methylphenyl)-6-{[(2,5-dichlorophenyl)carbonyl]amino}-2-(methoxymethyl)-1H-benzimidazole-4-carboxamide hydrochloride]"
33.3 nM,122 nM,"COCc1nc2c(C(=O)Nc3cccc(Cl)c3C)cc(NC(=O)c3cccc(F)c3Cl)cc2[nH]1 [Example 100, 6-{[(2-Chloro-3-fluorophenyl)carbonyl]amino}-N-(3-chloro-2-methylphenyl)-2-(methoxymethyl)-1H-benzimidazole-4-carboxamide hydrochloride]"
77.8 nM,118 nM,"COCc1nc2c(C(=O)Nc3cccc(Cl)c3C)cc(NC(=O)c3c(F)ccc(F)c3Cl)cc2[nH]1 [Example 101, 6-{[(2-Chloro-3,6-difluorophenyl)carbonyl]amino}-N-(3-chloro-2-methylphenyl)-2-(methoxymethyl)-1H-benzimidazole-4-carboxamide hydrochloride]"
1.6 nM,49.1 nM,"COCc1nc2c(C(=O)Nc3cccc(Cl)c3C)cc(NC(=O)c3c(Cl)cccc3Br)cc2[nH]1 [Example 102, 6-{[(2-Bromo-6-chlorophenyl)carbonyl]amino}-N-(3-chloro-2-methylphenyl)-2-(methoxymethyl)-1H-benzimidazole-4-carboxamide hydrochloride]"
